Test results reported in patent US8716475B2, “2-aminopyrimidine modulators of the histamine H4 receptor” (Janssen Pharmaceutica NV, priority 2007, dated 2014).

target: T1, human H4 receptor (Homo sapiens, UniProt Q9H3N8); assay: Binding Assay on Recombinant Human Histamine H4 Receptor; settings: Table 2; [3H] histamine competition binding, membranes of SK-N-MC cells transfected with human H4 receptor; average of results
T1 construct: expressed in transfected cells
Procedure, shortened: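 Radioligand binding used membranes from SK-N-MC cells stably or transiently expressing human H4, prepared in 50 mM Tris/5 mM EDTA. Nonspecific binding was defined with 100 μM histamine. Bound radioactivity was counted after filtration on PEI-treated GF/C filters, and ">" values are the highest concentration tested.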

T1 sequence (Q9H3N8 whole entry): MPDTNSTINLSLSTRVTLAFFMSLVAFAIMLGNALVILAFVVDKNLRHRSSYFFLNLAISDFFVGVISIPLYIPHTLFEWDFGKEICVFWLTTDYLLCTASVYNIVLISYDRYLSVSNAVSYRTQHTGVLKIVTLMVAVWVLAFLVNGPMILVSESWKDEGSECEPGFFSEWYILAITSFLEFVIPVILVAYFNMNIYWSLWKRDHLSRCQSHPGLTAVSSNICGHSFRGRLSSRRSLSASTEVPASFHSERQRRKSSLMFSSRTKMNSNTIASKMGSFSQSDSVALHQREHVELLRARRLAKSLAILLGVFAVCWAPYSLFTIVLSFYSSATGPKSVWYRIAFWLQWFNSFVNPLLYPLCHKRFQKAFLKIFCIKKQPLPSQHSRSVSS

Point of comparison: `Nc1nc(CCC(F)(F)F)cc(N2CCNCC2)n1` [Example 182, 4-piperazin-1-yl-6-(3,3,3-trifluoro-propyl)-pyrimidin-2-ylamine], Ki 20 nM. Against it:
- Nc1nc(C2Cc3ccccc3C2)cc(N2CCNCC2)n1 [Example 165, 4-Indan-2-yl-6-piperazin-1-yl-pyrimidin-2-ylamine] — 10-fold lower, 2 nM
- Nc1nc(Cc2ccccc2)cc(N2CC(N)C2)n1 [Example 166, 4-(3-Amino-azetidin-1-yl)-6-benzyl-pyrimidin-2-ylamine] — 2.6-fold higher, 52 nM
- Nc1nc(Cc2ccccc2)cc(N2CC[C@@H](N)C2)n1 [Example 167, (R)-4-(3-Amino-pyrrolidin-1-yl)-6-benzyl-pyrimidin-2-ylamine] — 3.9-fold higher, 78 nM
- NCCNc1cc(C2Cc3ccccc3C2)nc(N)n1 [Example 168, N^4-(2-Amino-ethyl)-6-indan-2-yl-pyrimidine-2,4-diamine] — 2.3-fold higher, 46 nM
- CN[C@@H]1CCN(c2cc(C3Cc4ccccc4O3)nc(N)n2)C1 (stereo partly drawn) [Example 169, (R)-4-(2,3-Dihydro-benzofuran-2-yl)-6-(3-methylamino-pyrrolidin-1-yl)-pyrimidin-2-ylamine] — 20-fold higher, 396 nM
- CC1(c2cc(N3C[C@H]4CNC[C@H]4C3)nc(N)n2)CCOCC1 [Example 170, 4-(cis-Hexahydro-pyrrolo[3,4-c]pyrrol-2-yl)-6-(4-methyl-tetrahydro-pyran-4-yl)-pyrimidin-2-ylamine] — 290-fold higher, 5890 nM
- Nc1nc(C2Cc3ccccc3O2)cc(N2CCNCC2)n1 (stereo not drawn) [Example 171, 4-(2,3-Dihydro-benzofuran-2-yl)-6-piperazin-1-yl-pyrimidin-2-ylamine] — 5.3-fold higher, 106 nM
- Nc1nc(C2Cc3ccccc3O2)cc(N2CC(N)C2)n1 (stereo not drawn) [Example 172, 4-(3-Amino-azetidin-1-yl)-6-(2,3-dihydro-benzofuran-2-yl)-pyrimidin-2-ylamine] — 47-fold higher, 932 nM
- Nc1nc(C2Cc3ccccc3C2)cc(N2C[C@H]3CNC[C@H]3C2)n1 [Example 173, 4-(cis-Hexahydro-pyrrolo[3,4-c]pyrrol-2-yl)-6-indan-2-yl-pyrimidin-2-ylamine] — 100-fold higher, 2070 nM
- CC1(c2cc(N3CC[C@@H](N)C3)nc(N)n2)CCOCC1 [Example 174, (R)-4-(3-Amino-pyrrolidin-1-yl)-6-(4-methyl-tetrahydro-pyran-4-yl)-pyrimidin-2-ylamine] — 6.9-fold higher, 138 nM
- Nc1nc(C2CCOCC2)cc(N2CC[C@@H](N)C2)n1 [Example 175, (R)-4-(3-Amino-pyrrolidin-1-yl)-6-(tetrahydro-pyran-4-yl)-pyrimidin-2-ylamine] — 4.2-fold higher, 85 nM
- NCCNc1cc(C2CCOCC2)nc(N)n1 [Example 176, N^4-(2-Amino-ethyl)-6-(tetrahydro-pyran-4-yl)-pyrimidine-2,4-diamine] — 17-fold higher, 335 nM
- CN(CCN)c1cc(C2CCOCC2)nc(N)n1 [Example 177, N^4-(2-Amino-ethyl)-N^4-methyl-6-(tetrahydro-pyran-4-yl)-pyrimidine-2,4-diamine] — 52-fold higher, 1030 nM
- Nc1nc(CCc2ccccc2)cc(N2CC[C@@H](N)C2)n1 [Example 178, (R)-4-(3-Amino-pyrrolidin-1-yl)-6-phenethyl-pyrimidin-2-ylamine] — 2.2-fold lower, 9 nM
- CN1CCN(c2cc(CCc3ccccc3)nc(N)n2)CC1 [Example 179, 4-(4-Methyl-piperazin-1-yl)-6-phenethyl-pyrimidin-2-ylamine] — 3.3-fold lower, 6 nM
- CN[C@@H]1CCN(c2cc(CCc3ccccc3)nc(N)n2)C1 [Example 180, (R)-4-(3-Methylamino-pyrrolidin-1-yl)-6-phenethyl-pyrimidin-2-ylamine] — 2.5-fold lower, 8 nM
- CN1CCN(c2cc(CCC(F)(F)F)nc(N)n2)CC1 [Example 181, 4-(4-Methyl-piperazin-1-yl)-6-(3,3,3-trifluoro-propyl)-pyrimidin-2-ylamine] — 2.5-fold lower, 8 nM
- CN[C@@H]1CCN(c2cc(CCC(F)(F)F)nc(N)n2)C1 [Example 183, (R)-4-(3-Methylamino-pyrrolidin-1-yl)-6-(3,3,3-trifluoro-propyl)-pyrimidin-2-ylamine] — within 1.5-fold, 16 nM
- Nc1nc(CCC(F)(F)F)cc(N2CC[C@@H](N)C2)n1 [Example 184, (R)-4-(3-Amino-pyrrolidin-1-yl)-6-(3,3,3-trifluoro-propyl)-pyrimidin-2-ylamine] — 1.5-fold lower, 13 nM
- COc1c(C2CCCC2)nc(N)nc1N1CCN(C)CC1 [Example 185, 4-Cyclopentyl-5-methoxy-6-(4-methyl-piperazin-1-yl)-pyrimidin-2-ylamine] — 15-fold higher, 300 nM
- COc1c(C2CCCC2)nc(N)nc1N1CCNCC1 [Example 186, 4-Cyclopentyl-5-methoxy-6-piperazin-1-yl-pyrimidin-2-ylamine] — 11-fold higher, 213 nM
- CN[C@@H]1CCN(c2nc(N)nc(C3CCCC3)c2OC)C1 [Example 187, (R)-4-Cyclopentyl-5-methoxy-6-(3-methylamino-pyrrolidin-1-yl)-pyrimidin-2-ylamine] — 2-fold lower, 10 nM
- COc1c(C2CCCC2)nc(N)nc1N1C[C@H]2CCCN[C@H]2C1 [Example 188, (R,R)-4-Cyclopentyl-5-methoxy-6-(octahydro-pyrrolo[3,4-b]pyridin-6-yl)-pyrimidin-2-ylamine] — within 1.5-fold, 18 nM
- CN(CCN)c1cc(C2CCOC2)nc(N)n1 (stereo not drawn) [Example 189, N^4-(2-Amino-ethyl)-N^4-methyl-6-(tetrahydro-furan-3-yl)-pyrimidine-2,4-diamine] — 3.3-fold lower, 6 nM
- Nc1nc(C2CCOC2)cc(N2CC3CCCNC3C2)n1 (stereo not drawn) [Example 190, 4-(cis-Octahydro-pyrrolo[3,4-b]pyridin-6-yl)-6-(tetrahydro-furan-3-yl)-pyrimidin-2-ylamine] — 1.8-fold lower, 11 nM
- CN[C@@H]1CCN(c2cc(C3CCOC3)nc(N)n2)C1 (stereo partly drawn) [Example 191, (R)-4-(3-Methylamino-pyrrolidin-1-yl)-6-(tetrahydro-furan-3-yl)-pyrimidin-2-ylamine] — 1.7-fold lower, 12 nM
- Nc1nc(C2CCOC2)cc(N2CCCNCC2)n1 (stereo not drawn) [Example 192, 4-[1,4]-Diazepan-1-yl-6-(tetrahydro-furan-3-yl)-pyrimidin-2-ylamine] — within 1.5-fold, 17 nM
- NCCNc1cc(C2CCOC2)nc(N)n1 (stereo not drawn) [Example 195, N^4-(2-Amino-ethyl)-6-(tetrahydro-furan-3-yl)-pyrimidine-2,4-diamine] — 3-fold higher, 59 nM
- NCCCNc1cc(C2CCOC2)nc(N)n1 (stereo not drawn) [Example 196, N^4-(3-Amino-propyl)-6-(tetrahydro-furan-3-yl)-pyrimidine-2,4-diamine] — 10-fold higher, 203 nM
- CNCCN(C)c1cc(C2CCOC2)nc(N)n1 (stereo not drawn) [Example 197, N^4-Methyl-N^4-(2-methylamino-ethyl)-6-(tetrahydro-furan-3-yl)-pyrimidine-2,4-diamine] — 10-fold higher, 204 nM
- CNCCNc1cc(C2CCOC2)nc(N)n1 (stereo not drawn) [Example 198, N^4-(2-Methylamino-ethyl)-6-(tetrahydro-furan-3-yl)-pyrimidine-2,4-diamine] — 120-fold higher, 2450 nM
- Cc1nc(N)nc(N2CCN(C)CC2)c1F [Example 199, 5-Fluoro-4-methyl-6-(4-methyl-piperazin-1-yl)-pyrimidin-2-ylamine] — 3.5-fold higher, 69 nM
- Cc1nc(N)nc(N2CC3CCCNC3C2)c1F (stereo not drawn) [Example 200, 5-Fluoro-4-methyl-6-(octahydro-pyrrolo[3,4-b]pyridin-6-yl)-pyrimidin-2-ylamine] — 12-fold higher, 235 nM
- Cc1nc(N)nc(N2CCNCC2)c1F [Example 201, 5-Fluoro-4-methyl-6-piperazin-1-yl-pyrimidin-2-ylamine] — 20-fold higher, 391 nM
- CN[C@@H]1CCN(c2nc(N)nc(C)c2F)C1 [Example 202, (R)-5-Fluoro-4-methyl-6-(3-methylamino-pyrrolidin-1-yl)-pyrimidin-2-ylamine] — 26-fold higher, 515 nM
- Cc1nc(N)nc(N(C)CCN)c1F [Example 203, N^4-(2-Amino-ethyl)-5-fluoro-6,N^4-dimethyl-pyrimidine-2,4-diamine] — 210-fold higher, 4230 nM
- Nc1nc(Cc2ccncc2)cc(N2CCNCC2)n1 [Example 204, 4-piperazin-1-yl-6-pyridin-4-ylmethyl-pyrimidin-2-ylamine] — 2.2-fold higher, 45 nM
- CN[C@@H]1CCN(c2cc(Cc3ccncc3)nc(N)n2)C1 [Example 205, (R)-4-(3-Methylamino-pyrrolidin-1-yl)-6-pyridin-4-ylmethyl-pyrimidin-2-ylamine] — 12-fold higher, 230 nM
- CN1CCN(c2cc(Cc3ccncc3)nc(N)n2)CC1 [Example 206, 4-(4-Methyl-piperazin-1-yl)-6-pyridin-4-ylmethyl-pyrimidin-2-ylamine] — 4-fold higher, 81 nM
- CN1CCN(c2cc(Cc3ccsc3)nc(N)n2)CC1 [Example 207, 4-(4-Methyl-piperazin-1-yl)-6-thiophen-3-ylmethyl-pyrimidin-2-ylamine] — 10-fold lower, 2 nM
- CN[C@@H]1CCN(c2cc(Cc3ccsc3)nc(N)n2)C1 [Example 208, (R)-4-(3-Methylamino-pyrrolidin-1-yl)-6-thiophen-3-ylmethyl-pyrimidin-2-ylamine] — 2.5-fold lower, 8 nM
- Nc1nc(Cc2ccsc2)cc(N2CCNCC2)n1 [Example 209, 4-piperazin-1-yl-6-thiophen-3-ylmethyl-pyrimidin-2-ylamine] — 10-fold lower, 2 nM
- Nc1nc(Cc2ccsc2)cc(N2CC[C@@H](N)C2)n1 [Example 210, (R)-4-(3-Amino-pyrrolidin-1-yl)-6-thiophen-3-ylmethyl-pyrimidin-2-ylamine] — 1.7-fold lower, 12 nM
- Nc1nc(Cc2ccsc2)cc(N2CC3CCCNC3C2)n1 (stereo not drawn) [Example 211, 4-(cis-Octahydro-pyrrolo[3,4-b]pyridin-6-yl)-6-thiophen-3-ylmethyl-pyrimidin-2-ylamine] — 5-fold lower, 4 nM
- NCCNc1cc(Cc2ccsc2)nc(N)n1 [Example 212, N^4-(2-Amino-ethyl)-6-thiophen-3-ylmethyl-pyrimidine-2,4-diamine] — 1.7-fold lower, 12 nM
- CN1CCN(c2cc(Cc3cccs3)nc(N)n2)CC1 [Example 213, 4-(4-Methyl-piperazin-1-yl)-6-thiophen-2-ylmethyl-pyrimidin-2-ylamine] — 5-fold lower, 4 nM
- CN[C@@H]1CCN(c2cc(Cc3cccs3)nc(N)n2)C1 [Example 214, (R)-4-(3-Methylamino-pyrrolidin-1-yl)-6-thiophen-2-ylmethyl-pyrimidin-2-ylamine] — within 1.5-fold, 19 nM
